Like-named read-outs stand apart in the source and are kept apart here.
Key:
[1] = system: strain of Escherichia coli in which a plasmid encoding a class B β-lactamase (IMP-1) was introduced; experiment: Mouse abdominal infection model, E. coli IMP-1 strain; type: in vivo, mice
Protocol: After mice were infected with a laboratory strain (a strain of Escherichia coli in which a plasmid encoding a class B β-lactamase (IMP-1) was introduced), a test substance (compound A) was administered; and survival was observed. Specifically, the animal study was performed as follows.
The laboratory strain grown overnight on a Mueller-Hinton agar medium was scraped with a sterile swab, suspended in physiological saline, adjusted to 2-5×10^8 CFU/mL, and mixed with an equal amount of a 10% mucin solution (1-2.5×10^8 CFU/mL) to prepare a bacterial liquid. Mice (Crl:CD1(ICR), male, 4 weeks old (Charles River Laboratories Japan, Inc.)) acclimated for 4 days after arrival were weighed, and then infected by intraperitoneal administration of 250 μL of the prepared bacterial liquid per mouse. An antimicrobial drug (meropenem trihydrate (WAKO 137-15674)) and the test substance were dissolved in physiological saline. A first intraperitoneal administration of the antimicrobial drug (0.2 mg/kg) and/or the test substance (100 mg/kg) was performed 1 hour after infection. A second administration was performed 3 hours after infection, in the same manner as the first administration (up to this point, day 0). […]

[2] = system: bacteria into which a plasmid encoding VIM-2 was introduced (pBCSK (+)/E. coli DH5a); experiment: Drug susceptibility test (MIC), VIM-2-producing strain; type: cell-based; settings: Escherichia coli
Protocol: (§1) Plates for drug susceptibility test measurement were prepared by using 96- or 384-well U-bottom plates, a Mueller-Hinton liquid medium, and antimicrobial drugs (ceftazidime (CAZ), imipenem (IPM), meropenem (MPM), doripenem (DPM), and biapenem (BPM)). A 1/2 antimicrobial drug dilution series was made up to well 11 of, for example, a 96-well U-bottom plate so that the leftmost well 1 of row A contained an antimicrobial drug at the maximum concentration, the antimicrobial drug concentration in well 2 to the right of well 1 was 1/2 of the maximum concentration, the antimicrobial drug concentration in well 3 to the right of well 2 was 1/4 of the maximum concentration, and so on. […] An antimicrobial drug dilution series was made in each of rows B and C in the same manner as in row A. Further, 10 μg/mL and 50 μg/mL of a test substance (compound A) were added to row B and row C, respectively (FIG. 1).
(§2) Bacteria into which a plasmid encoding a class B β-lactamase (metallo-β-lactamase (MBL): NDM-1, or VIM-2) was introduced (pBCSK (+)/E. coli DH5a) were used as test bacteria. The test bacteria were adjusted to 10^8 cfu/mL with a Mueller-Hinton medium. Further, the test bacteria were diluted 10-fold with a Mueller-Hinton medium (10^7 cfu/mL). 5 μl of the test bacteria was collected and inoculated into the plates for drug susceptibility test measurement. After overnight culture at 35° C., the growth of the test bacteria was visually checked. The concentration of the antimicrobial drug in a well containing the lowest concentration of the antimicrobial drug among the wells in which no growth of the test bacteria was confirmed was defined as the minimal inhibitory concentration value (FIG. 1).
(§3) The drug susceptibility test was performed in the same manner as in Test Example 1, except that compounds A to C and E to I were used as test substances.
(§4) The test was performed in the same manner as in Test Example 1, except that X2a, X2b, X2c, X2d, X3a, and X4 were used as test substances (inhibitors). The inhibitor concentration was 10 μg/mL.

[3] = system: strains of Enterobacteriaceae bacteria that produce class B β-lactamases; experiment: Drug susceptibility test 2; type: cell-based; settings: addition of compound A
[4] = system: Empty vector (no class B lactamase produced), pBCSK (+)/E. coli DH5a; experiment: Drug susceptibility test (MIC), empty vector strain; type: cell-based; settings: Escherichia coli
[5] = system: class B β-lactamase (IMP-1, NDM-1, or VIM-2); experiment: β-Lactamase inhibitory activity measurement test (imipenem decomposition); type: biochemical; settings: test substance 0, 1, 10, 100 μM; enzyme 10 nM; imipenem 100 μM
Protocol: Each individual class B β-lactamase (IMP-1, NDM-1, or VIM-2; final concentration: 10 nM), imipenem (final concentration: 100 μM), and each individual test substance (compound A or compound Z shown below; final concentrations: 0, 1, 10, 100 μM) were mixed in an HEPES buffer. The imipenem decomposition activity (Dabs/min) under the conditions of absorbance: 298 nm and temperature: 30° C. was measured. The imipenem decomposition activity when no test substance was added was defined as 100%, and the imipenem residual decomposition activity when each test substance was individually added was plotted.

IMP-1 = IMP-1 (Serratia marcescens, UniProt P52699); experiment: Inhibition constant (Ki) measurement test, IMP-1; type: biochemical; settings: imipenem substrate, enzyme 10 nM, 30° C., Lineweaver-Burk; read-out: Inhibition constant Ki IMP-1
Protocol: (§5) The inhibition constant (Ki) measurement test was performed in the following manner. The inhibition constant (Ki) was measured using various metallo-β-lactamases (final concentration: 10 nM). The imipenem decomposition activity (Δabs/min) at each point under the conditions of absorbance: 298 nm and temperature: 30° C. was measured by varying the concentration of imipenem as a substrate and the concentrations of test substances (compounds A to E) as inhibitors. Each measured value was fitted to the Lineweaver-Burk plot equation to calculate Ki.
(§6) The test was performed in the same manner as in Test Example 6, except that X2a, X2b, X2c, X2d, X3a, and X4 were used as test substances (inhibitors).

[6] = system: bacteria into which a plasmid encoding NDM-1 was introduced (pBCSK (+)/E. coli DH5a); experiment: Drug susceptibility test (MIC), NDM-1-producing strain; type: cell-based; settings: Escherichia coli
Protocol: as §1, §2, §3, §4

NDM-1 = NDM-1 (Klebsiella pneumoniae, UniProt C7C422); experiment: Inhibition constant (Ki) measurement test, NDM-1; type: biochemical; settings: imipenem substrate, enzyme 10 nM, 30° C., Lineweaver-Burk; read-out: Inhibition constant Ki NDM-1
Protocol: as §5, §6

[7] = system: strains of Acinetobacter that produce class B β-lactamases; experiment: Drug susceptibility test 3; type: cell-based; settings: addition of compound A
VIM-2 = VIM-2 (Escherichia coli, UniProt Q5U7L7); experiment: Inhibition constant (Ki) measurement test, VIM-2; type: biochemical; settings: imipenem substrate, enzyme 10 nM, 30° C., Lineweaver-Burk; read-out: Inhibition constant Ki VIM-2
Protocol: as §5, §6

[8] = Reverse mutation test (Ames test); type: cell-based; settings: entrusted to UBE Scientific Analysis Laboratory, Inc.
Description: Compound A was used as a test substance.

[9] = system: β-lactamase-producing bacteria; experiment: Drug susceptibility tests, summary statements over all strains; type: cell-based, E. coli; settings: addition of the compound
Protocol: as §1, §2

HeLa cells = experiment: Toxicity evaluation test (MTT assay); type: cell-based; settings: various concentrations
Protocol: Various concentrations of a test substance (compound A) or staurosporine were added to HeLa cells, and live cells were counted using an MTT assay kit (Promega Cat No. G4000).

[10] = system: bacteria (K. pneumoniae) in which a plasmid encoding NDM and VIM was introduced; experiment: Mouse abdominal infection model, K. pneumoniae NDM and VIM strain; type: in vivo, mice; settings: antimicrobial drug 0.8 mg/kg or 4 mg/kg, test substance 10 mg/kg
Protocol: The laboratory strain grown overnight on a Mueller-Hinton agar medium was scraped with a sterile swab, suspended in physiological saline, adjusted to 2-5×10^8 CFU/mL, and mixed with an equal amount of a 10% mucin solution (1-2.5×10^8 CFU/mL) to prepare a bacterial liquid. Mice (Crl:CD1(ICR), male, 4 weeks old (Charles River Laboratories Japan, Inc.)) acclimated for 4 days after arrival were weighed, and then infected by intraperitoneal administration of 250 μL of the prepared bacterial liquid per mouse. An antimicrobial drug (meropenem trihydrate (WAKO 137-15674)) and the test substance were dissolved in physiological saline. A first intraperitoneal administration of the antimicrobial drug (0.2 mg/kg) and/or the test substance (100 mg/kg) was performed 1 hour after infection. A second administration was performed 3 hours after infection, in the same manner as the first administration (up to this point, day 0).
The animal study was performed in the same manner as in Test Example 12, except that in addition to a strain of Escherichia coli in which a plasmid encoding a class B lactamase (IMP-1) was introduced, bacteria (K. pneumoniae) in which a plasmid encoding NDM and VIM was introduced were used as a laboratory strain, compound I was administered as a test substance, […], and the dosage of the test substance was 10 mg/kg. […]

[11] = read-out: MIC CAZ + compound A (10 μg/ml)
[12] = read-out: MIC MPM + compound A (10 μg/ml)
[13] = read-out: MIC MPM + compound A (50 μg/ml)
[14] = read-out: MIC CAZ + compound A (50 μg/ml)

Chain of NDM-1 (C7C422 29-270, looked up, species assumed): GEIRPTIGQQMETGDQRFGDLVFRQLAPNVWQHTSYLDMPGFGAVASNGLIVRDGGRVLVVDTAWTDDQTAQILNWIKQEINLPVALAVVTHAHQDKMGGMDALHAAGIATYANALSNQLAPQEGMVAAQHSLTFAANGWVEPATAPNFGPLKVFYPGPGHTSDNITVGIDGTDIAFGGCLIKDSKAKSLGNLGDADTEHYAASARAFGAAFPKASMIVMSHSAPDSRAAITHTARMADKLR
Chain of IMP-1 (P52699 19-246, looked up, species assumed): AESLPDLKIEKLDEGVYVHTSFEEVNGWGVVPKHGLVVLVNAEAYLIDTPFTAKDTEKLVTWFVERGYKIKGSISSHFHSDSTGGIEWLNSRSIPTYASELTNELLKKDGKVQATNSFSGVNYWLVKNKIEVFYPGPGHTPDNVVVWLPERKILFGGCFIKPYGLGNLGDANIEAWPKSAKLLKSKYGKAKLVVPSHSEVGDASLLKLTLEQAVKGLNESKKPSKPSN

For `Cc1oc(C)c(S(N)(=O)=O)c1C(=O)O` [Compound A], the “survival rate (FIG. 10)” value ([1]; meropenem 0.2 mg/kg and test substance 100 mg/kg intraperitoneal, 1 and 3 hours after infection) was “notably improved”, the MIC [2, 11] was 1 µg/mL and the MIC [2, 12] was 0.031 µg/mL. For the same molecule, the MIC [2, 13] was 0.031 µg/mL, the “effect on MICs of the antimicrobial drugs (FIG. 3)” value [3] was “decreases the MICs” and the MIC [4, 11] was 0.25 µg/mL. For the same molecule, the MIC [4, 14] was 0.25 µg/mL, the MIC [4, 12] was 0.016 µg/mL and the MIC [4, 13] was 0.016 µg/mL. The “β-lactamase inhibition (imipenem residual decomposition activity, FIG. 2)” value [5] was “inhibit β-lactamases”, the Ki (IMP-1) was 220 nM and the MIC [6, 11] was 256 µg/mL. It also gave an MIC [6, 14] of 64 µg/mL, an MIC [6, 12] of 0.25 µg/mL and a Ki (NDM-1) of 9820 nM. For the same molecule, the “effect on MICs of the antimicrobial drugs (FIG. 4)” value [7] was “decreases the MICs”, the Ki (VIM-2) was 2800 nM and the Ames test result [8] was “negative”. The “effect on MICs of the antimicrobial drugs (statement on Tables 1, 2, 4)” value [9] was “decreases the MICs” and the “toxicity (live cells, MTT, FIG. 9)” value (HeLa cells) was “very low”.
With `CCc1c(C(=O)O)c(S(N)(=O)=O)c(CC)n1C` [Compound I] the “survival rate (FIG. 11)” value ([1]; antimicrobial drug 0.8 mg/kg or 4 mg/kg, test substance 10 mg/kg) was “notably improved”, the Ki (IMP-1) was 2140 nM and the Ki (NDM-1) was 840 nM. For the same molecule, the “survival rate (FIG. 12)” value [10] was “notably improved” and the Ki (VIM-2) was 20 nM.

From US11497731B2, “β-lactamase inhibitor” (NATIONAL UNIVERSITY CORPORATION TOKAI NATIONAL HIGHER …, priority 2018, dated 2022)
